Source: publication PMC5430599, “Antiplasmodial dihetarylthioethers target the coenzyme A synthesis pathway in Plasmodium falciparum erythrocytic stages” (Malaria Journal, 2017)
In brackets after ≈: the same amount, converted by molar mass. Where two headings read alike, the source gives them in different places.

Assays:
[1] = test system: asexual erythrocytic stages of transgenic NF54-luc P. falciparum; assay: Luciferase-based viability screening for anti-malarial activity; assay type: cell-based, Plasmodium falciparum; settings: >50% inhibition of viability rated active; for inhibition at 3 µM: Plasmodium falciparum, NF54, 48 h, read-out: % inhibition, PfNF54-Luc at 3 µM, 3 µM, 48 h
Procedure: Asexual erythrocytic stages of transgenic NF54-luc P. falciparum were used for the luciferase-based viability assay. These parasites constitutively express high levels of luciferase. The parasites were cultured as described previously. Parasite culture with parasitaemia of 0.5–1% was dispensed in triplicate into white 96-well flat-bottom plates (each well contains 250 µL) (NUNC, Roskilde, […], 90% N2, 5% CO2, and 5% O2). 0.01% DMSO was included in the untreated infected RBC cultures as negative control, since the compounds stock initially was diluted in DMSO and each treatment well also contained 0.01% DMSO. Subsequently, 100 µL RPMI1640 media was removed from each well and a 100 µL volume of the Bright-Glo® substrate solution added to each well. The resultant cleavage product of the reaction, light, was measured using a FLUOROSKAN FL luminometer (Thermo), to ascertain viable parasites. Untreated cultures were used as negative controls and to calculate the inhibition rate (0% inhibition of parasite growth). Blasticidin (Sigma-Aldrich, St. Louis, MO, USA), used for selection of transfected parasites, was included as a positive control on each plate and gave >90% inhibition of parasite growth at concentration 2 µg/mL. Compounds with >50% inhibition of viability were rated as actives. Experiments were performed in triplicate and were repeated at least twice.

[2] = Aqueous thermodynamic solubility, miniaturized shake-flask method with HPLC; assay type: physicochemical; settings: for solubility thermodynamic / solubility: aqueous phosphate buffer, 25 °C, pH 7.4, aqueous buffer, thermodynamic from solid
Procedure: The aqueous solubility was determined using a miniaturized shake-flask-method. In brief, the compound (0.25–1.0 mg) was incubated in a Whatman Mini-Uniprep vial with aqueous phosphate buffer, pH 7.4, (300 µL) in an incubation shaker (IKA® KS 3000 ic control, Staufen, Germany) at 25 °C, 400 rpm. Presence of undissolved compound was checked at 24 and 48 h. After 24, 48, or 72 h of shaking, the filter plunger was punched into the vial and the concentration in the supernatant was determined by HPLC (AUC method, isocratic HPLC, at specific λmax as indicated in the Additional file 2). For the calibration, at least three different dilutions of the compounds from DMSO stock solutions diluted with ACN were quantified. Preparation of buffer pH 7.4: to a solution of Na2HPO4∙2 H2O (290 mg), K2HPO4 (20 mg) and NaCl (808 mg) in water (ad 100.0 mL), 12% aqueous HCl was added dropwise until the pH reached 7.4. In the case of 3a the concentration in the supernatant was below the limit of quantification. […] Further details of the solubility testing methods are described in Additional file 2, including calibration concentration ranges, composition of chromatographic eluents, and wavelength for measurement of absorbance.
Two stock solutions of each compound with a concentration of 10 mM (except for 8g: 1 mM) were prepared. Three dilutions with ACN were prepared (concentration range: 3d: 100 µM – […]
8g: 10 µM – 0.3 µM; 8k: 100 µM – 10 µM) from the stock solutions of the test compounds and measured as duplicates by HPLC (isocratic elution: solvent indicated in Additional file 2, Table, injection volume: indicated in Additional file 2, Table, flow rate: 1.000 mL/min, column temperature: 40 °C, time of detection: 8 min, detection by DAD at specific λmax as indicated in Additional file 2, Table). The area under the curve (% AUC) of the substance peak was determined and together with the respective concentration a linear calibration graph was created with Microsoft Excel (2010, Microsoft Corporation) for every compound.
Additional file 2, Table Af1: Solvents for isocratic elution, injection volumes and specific λmax […]
ID solvent injection volume [µL] λmax [nm]
Sample preparation and measurement of compound solubility
Samples of test compounds (0.25‐1.0 mg) were placed in Whatman‐Uni‐Prep® vials and aqueous phosphate buffer, pH 7.4 (300 µL, composition is indicated in Additional file 2, Table Af1) was added. The presence of undissolved compound was a requirement to determine the thermodynamic solubility. The vials were capped with the appropriate filter, […]
Additionally the vials were sealed with Parafilm M (Bemis Flexible Packaging, Neenah, WI, USA). The samples were incubated in an incubation shaker (IKA® KS 3000 ic control, Staufen, Germany) at 400 rpm and 25 °C for […]
24‐72 h. The presence of undissolved compound was checked at 24 and 48 h. Measurement of the samples was performed after 24 h, 48 h and 72 h; he filter plunger was punched into the vial and the concentration in the supernatant was determined by HPLC using the same methods as for the calibration solutions (Additional file 2, Table). All samples were measured in triplicate. By determination of the area under the curve (% AUC) of the substance and the specific linear calibration graph, the concentration of every compound in aqueous buffer solution was calculated. By comparison of the samples after 24 h and 48 h it was checked if equilibrium had been achieved after 24 h; if not, the samples were compared after 48 h and 72 h to check if equilibrium had been achieved after 48 h. In the case of 3a the concentration in the supernatant was below the limit of quantification. Therefore the lowest […]
Additional file 2, Table Af1: Composition of phosphate buffer pH 7.4 for determination of aqueous solubility. Modified according to Ph. Eur.8 […]
a Adjustment to pH 7.4 was carried out using a pH meter equipped with a glass electrode. […]
Lüddens, H., Synthesis of GABA A receptor agonists and evaluation of their α‐ […]

[3] = test system: human embryonic kidney (HEK-293) cells; assay: Cytotoxicity assay: human HEK-293 cell line (resazurin); assay type: cell-based; settings: for IC50: Homo sapiens, HEK293, cytotoxicity, 72 h, read-out: IC50 [µM], HEK-293
Procedure: Cytotoxicity against human embryonic kidney (HEK-293) cells was assessed as previously described. […] Cells were detached using Accutase treatment, then seeded into black clear-bottom 384-wells fluorescence microplates (Greiner), at a cell density of 44,000 cells/mL in 45 µL/well, using a Benchtop liquid dispenser (Thermo Fisher Multidrop). After seeding, the cells were brought back to the incubator and allowed to settle and reattach overnight. […] Plates were incubated at the standard condition above for 72 h. At the end of the incubation the medium in each well was replaced with 1 mM resazurin, and the plates were read using a multilabel microplate reader (PerkinElmer Envision) at 530 nm excitation and 595 nm emission wavelengths after a further 6 h incubation. Inhibition data was generated using Office Excel 2013 (Microsoft). IC50 values were calculated by fitting a four-parameter nonlinear regression model using Prism v.6.0 (Graphpad Software Inc., La Jolla, CA, USA).

[4] = aqueous buffer pH 7.4, shake flask
[5] = thermodynamic solubility, aqueous buffer pH 7.4, 25 °C, equilibrium after 24 h (c) or 48 h (d) per footnote, read-out: S0, exp
[6] = thermodynamic solubility, aqueous buffer pH 7.4, 25 °C, equilibrium after 24 h (c) or 48 h (d) per footnote

c1csc(Sc2ncnc3sccc23)n1 [Compound 8d]
inhibition at 3 µM [1]: 99.9%
Log S0, exp [2, 4]: −4.44
solubility thermodynamic [2, 5]: 36.4 µM (≈ 9.15 µg/mL)
IC50 [3]: > 10 µM

c1ccc2[nH]c(Sc3ncnc4sccc34)nc2c1 [Compound 8g]
inhibition at 3 µM [1]: 95 ± 1.1%
Log S0, exp [2, 4]: −6.37
IC50 [3]: > 10 µM

c1cnc2[nH]c(Sc3ncnc4sccc34)nc2c1 [Compound 8k]
inhibition at 3 µM [1]: 98 ± 0.2%
Log S0, exp [2, 4]: −4.11
solubility thermodynamic [2, 5]: 77 µM (≈ 22 µg/mL)
IC50 [3]: > 20 µM

c1coc(Sc2ncnc3sccc23)n1 [Compound 8e]
inhibition at 3 µM [1]: 99.5 ± 0.5%
Log S0, exp [2, 4]: −2.88
solubility ([2]; pH 7.4, shake flask): 1330 µM (≈ 313 µg/mL)
aqueous solubility ([2]; pH 7.4, shake flask, listed as 8e (KuWei173)): > 1000 µM
S0, exp [µM] [2, 6]: 1.33 × 10^3 c µM
IC50 [3]: > 10 µM
selectivity HEK-293 vs 3D7 parasites ([3]; IC50 HEK-293 / IC50 3D7): > 133 fold

Cn1ccnc1Sc1ncnc2sccc12 [Compound 8c]
inhibition at 3 µM [1]: 96.5 ± 1.6%
solubility thermodynamic ([2]; aqueous buffer pH 7.4, shake flask, read-out: Log S0, exp (converted)): 1780 µM (≈ 442 µg/mL)
solubility ([2]; pH 7.4, shake flask): > 1000 µM
S0, exp [µM] [2, 6]: 1780 µM·days
IC50 [3]: > 40 µM

Nc1nnc(Sc2ncnc3sccc23)s1 [Compound 8f]
inhibition at 3 µM [1]: 99.7 ± 0.1%
Log S0, exp [2, 4]: −5.36
solubility thermodynamic [2, 5]: 4.4 µM (≈ 1.18 µg/mL)
IC50 [3]: > 4 µM

c1coc(-c2nnc(Sc3ncnc4sccc34)o2)c1 [Compound 3a]
% inhibition, PfNF54-Luc at 3 µM ([1]; 3 µM, 48 h): 80.8 ± 0.5%
inhibition at 3 µM [1]: 80%
Log S0, exp [2, 4]: <−6.00
solubility thermodynamic [2, 5]: < 1 µM
IC50 [3]: > 10 µM
